Patent US20260151441A1, “NOVEL USE OF LACTOBACILLUS DELBRUECKII SUBSP. LACTIS STRAIN” (CKD BIO CORPORATION, priority 2022, published 2026)

Columns and labels:
[1] = Y-maze test in scopolamine-induced cognitive impairment animal model; format: in vivo; details: 5 mg/kg
Description: The Y-maze test is used to assess short-term memory and momentary spatial perception by evaluating the animal's ability to remember the previously explored arm, with higher memory performance indicated by a lower tendency to re-enter the same arm.
Specifically, scopolamine, which induces memory impairment, was administered together with either saline (vehicle), a known treatment for cognitive impairment or AD (donepezil or decursin), or the strain of the present invention, followed by the Y-maze test.
The Y-maze consists of three arms with dimensions of 40 cm in length, 3 cm in width, and 15 cm in height, with the angles between the arms set at 120°. […]
The control and experimental groups were placed at the center of the Y-maze, where they were allowed to explore the maze for 8 minutes. The movement of each individual was analyzed using EthoVision XT16 (Noldus, USA). The experimental results were obtained as spontaneous alternation behavior (%) and calculated according to the following equation: […]

[2] = Passive avoidance test in scopolamine-induced cognitive impairment animal model; format: in vivo, rodents; details: 5 mg/kg, 24 h after shock
Description: The passive avoidance test is a cognitive ability assessment experiment that utilizes the preference of rodents to stay in dark places.
Specifically, saline (as a vehicle), donepezil (a therapeutic agent for cognitive impairment or AD), decursin (a functional ingredient recognized for improving cognitive function), or the strain of the present invention was co-administered with scopolamine which induces memory impairment, followed by the passive avoidance test. […]
The control and experimental groups were placed in chambers consisting of a bright chamber and a dark chamber of the same size. […] After 24 hours, the animals were again placed in the bright chamber, and the time taken to enter the dark chamber was measured for up to 300 seconds to evaluate memory.

## CC(C)=CC(=O)O[C@H]1Cc2cc3ccc(=O)oc3cc2OC1(C)C [decursin]
[1]
  increase in spontaneous alternation behavior compared to vehicle-treated group (G2): ~1.3 fold
[2]
  memory recovery: about 87%

## COc1cc2c(cc1OC)C(=O)C(CC1CCN(Cc3ccccc3)CC1)C2 (stereo not shown) [donepezil]
[1]
  increase in spontaneous alternation behavior compared to vehicle-treated group (G2): ~1.3 fold
[2]
  memory recovery: about 74%
